Data on 7 molecules can be found in patent US20250333383A1, “N-OXIDE COMPOUNDS AND USE THEREOF” (SK BIOPHARMACEUTICALS CO., LTD., priority 2022, published 2025).

Assay [1] has as its system Rat Spinal Nerve Ligation Model. Nature of the assay: Rat Spinal Nerve Ligation (SNL, Chung) model, mechanical allodynia by von Frey filaments. Type of assay: in vivo. To be noted: 30 mg/kg, p.o., PWT two hours after the treatment. As to the method: Rat Spinal Nerve Ligation Model
Analgesic efficacy was examined through the Spinal Nerve Ligation (SNL) model, also known as the Chung model (Kim and Chung, 1992). SNL model is one of the most frequently used animal models for the assessment of neuropathic pain behavior.
Briefly, the lumbar 5 spinal nerve is ligated with silk suture distal to the dorsal root ganglion. After two weeks of recovery, mechanical allodynia in the affected paw of animals was evaluated using von Frey filaments. Using the Dixons Up-Down method (Chaplan et al, 1994), a pre-drug baseline was taken with allodynia defined as a paw withdrawal threshold (PWT)<4 g. Test compounds (at 30 mg/kg) or vehicle were then orally administered, and PWT was determined two hours after the treatment. Statistical mean values of PWT for vehicle control and drug treatment groups were calculated, and the percent of maximum possible effect (% MPE) value was determined according to the following formula; % MPE=[(post-drug PWT−pre-drug PWT)/(cutoff PWT−pre-drug PWT)]×100.

The target in assay [2] is T1, human Nav1.7 channels (Homo sapiens, UniProt Q15858).
T1 construct: host or cells: HEK293
T1 sequence (Q15858 whole entry): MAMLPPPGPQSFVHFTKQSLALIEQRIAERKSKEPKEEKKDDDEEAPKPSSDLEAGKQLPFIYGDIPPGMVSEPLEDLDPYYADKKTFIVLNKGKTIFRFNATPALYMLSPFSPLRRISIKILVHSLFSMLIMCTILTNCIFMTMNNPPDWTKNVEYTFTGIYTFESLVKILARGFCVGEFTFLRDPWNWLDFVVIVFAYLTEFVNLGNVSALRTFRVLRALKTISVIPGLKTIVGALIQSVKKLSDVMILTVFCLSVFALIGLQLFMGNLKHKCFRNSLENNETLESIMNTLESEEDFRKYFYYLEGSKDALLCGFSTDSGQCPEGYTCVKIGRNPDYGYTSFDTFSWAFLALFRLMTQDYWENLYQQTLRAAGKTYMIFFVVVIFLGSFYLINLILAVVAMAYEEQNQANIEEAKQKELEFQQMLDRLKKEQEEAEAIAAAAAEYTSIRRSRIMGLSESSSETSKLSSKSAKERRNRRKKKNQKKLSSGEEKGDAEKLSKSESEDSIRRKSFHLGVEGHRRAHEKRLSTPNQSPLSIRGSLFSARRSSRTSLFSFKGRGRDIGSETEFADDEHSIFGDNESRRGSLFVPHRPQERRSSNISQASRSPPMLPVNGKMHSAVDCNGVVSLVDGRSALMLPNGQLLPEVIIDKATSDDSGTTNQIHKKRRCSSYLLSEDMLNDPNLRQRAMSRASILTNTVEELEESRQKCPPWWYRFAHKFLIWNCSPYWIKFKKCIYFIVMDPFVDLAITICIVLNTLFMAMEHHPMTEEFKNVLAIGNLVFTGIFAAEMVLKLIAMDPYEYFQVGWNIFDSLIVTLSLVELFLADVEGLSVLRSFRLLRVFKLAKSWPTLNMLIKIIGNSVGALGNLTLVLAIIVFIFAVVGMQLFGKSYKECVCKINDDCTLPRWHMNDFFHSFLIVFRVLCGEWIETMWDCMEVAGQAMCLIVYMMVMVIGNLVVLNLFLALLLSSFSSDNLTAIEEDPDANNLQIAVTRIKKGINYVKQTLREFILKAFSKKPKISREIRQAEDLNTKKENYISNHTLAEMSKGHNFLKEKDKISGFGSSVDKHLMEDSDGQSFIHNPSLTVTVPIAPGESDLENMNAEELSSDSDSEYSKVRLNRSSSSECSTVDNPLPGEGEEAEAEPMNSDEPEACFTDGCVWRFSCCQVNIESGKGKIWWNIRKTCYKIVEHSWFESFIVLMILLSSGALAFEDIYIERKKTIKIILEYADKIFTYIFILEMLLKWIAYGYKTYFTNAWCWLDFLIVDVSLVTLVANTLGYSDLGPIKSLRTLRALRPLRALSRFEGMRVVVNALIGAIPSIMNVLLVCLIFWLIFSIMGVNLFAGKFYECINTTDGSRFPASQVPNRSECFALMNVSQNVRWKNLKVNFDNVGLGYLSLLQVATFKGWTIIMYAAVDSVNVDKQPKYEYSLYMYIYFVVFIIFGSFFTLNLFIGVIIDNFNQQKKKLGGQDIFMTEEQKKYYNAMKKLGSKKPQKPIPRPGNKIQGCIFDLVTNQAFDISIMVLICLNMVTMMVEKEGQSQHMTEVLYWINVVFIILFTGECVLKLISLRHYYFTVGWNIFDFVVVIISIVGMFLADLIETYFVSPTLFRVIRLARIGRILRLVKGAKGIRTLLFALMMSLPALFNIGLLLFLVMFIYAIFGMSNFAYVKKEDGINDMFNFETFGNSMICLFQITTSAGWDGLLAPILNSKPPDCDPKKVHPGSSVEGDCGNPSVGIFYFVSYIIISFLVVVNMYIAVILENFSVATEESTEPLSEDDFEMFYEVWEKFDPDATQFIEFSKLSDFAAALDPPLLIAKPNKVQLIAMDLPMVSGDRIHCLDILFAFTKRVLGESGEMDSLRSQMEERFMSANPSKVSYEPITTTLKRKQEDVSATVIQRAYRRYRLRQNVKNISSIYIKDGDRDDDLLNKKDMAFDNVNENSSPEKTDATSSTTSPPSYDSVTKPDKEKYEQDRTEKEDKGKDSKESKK
Nature of the assay: hNav1.7 channel assay, whole cell patch clamp, two-pulse protocol. Type of assay: cell-based. To be noted: TP2 (inactivated phase inhibition), HEK293 cells stably expressing human Nav1.7, read-out: Inhibition activity: percent inhibition on the inactivated state of hNav1.7. The source says: Whole cell patch clamp technique was used to investigate the inhibitory effects of the compound of Examples on human Nav1.7 channels, stably expressed in HEK293 cells. Human Nav1.7 recombinant cell line (CYL3011-precisION) was purchased from Eurofins.
Two-pulse protocol was used every 10 seconds to assess the state-dependent inhibition by Examples. From the holding potential of −90 mV, pre-pulse (200 ms at −120 mV) was followed by test pulse1 ([…]), then test pulse2 (TP2: 20 ms at 0 mV) was evoked after inter-pulse (20 ms at −100 mV).
Peak current amplitudes were measured for test pulses TP1 (resting phase inhibition) and TP2 (inactivated phase inhibition). The following solutions were used for screening assay: External (mM): 145 NaCl, 1 MgCl2, 1.8 CaCl2, 10 Hepes, 5 Glucose, pH 7.4, 300 mOsm; Internal (mM): 120 CsF, 10 NaCl, 10 EGTA, 10 HEPES, pH 7.2, 290 mOsm.
The inhibition on the inactivated state of hNav1.7 was calculated as: % inhibition (inactivation state)=(1−(ITP2, TA/ITP2, Control)×100%, where ITP2 (the inward peak Na+ currents), Control and ITP2, TA were elicited by the TP2 in control (vehicle only) and in the presence of a test article (TA) indicating Examples, respectively.
(The patch-clamp technique gives a direct electrical read-out from membranes.)

For orientation: inhibition means the share of the control response that was lost under treatment. In the case of `O=C(NCc1cccc[n+]1[O-])c1cccc(-c2ccc(Cl)cc2)c1` [Example 2, 3-(4-chlorophenyl)-N-[(1-oxidopyridin-1-ium-2-yl)methyl]benzamide], in assay [1], the “in vivo efficacy: % MPE” value was “+++ (+++: 70-100%)”. Also, in assay [2], the inhibition at 10 µM was 70 to 100%.
On to `O=C(NCc1cccc[n+]1[O-])c1cccc(-c2ccc(OC(F)(F)F)cc2)c1` [Example 3, N-[(1-oxidopyridin-1-ium-2-yl)methyl]-3-[4-(trifluoromethoxy)phenyl]benzamide], for which the “in vivo efficacy: % MPE” value in assay [1] is “++ (++: 40-70%,)”. Further, the inhibition at 10 µM in assay [2] lay in the range of 70 to 100%.
For `Cc1ccc(-c2cccc(C(=O)NCc3cccc[n+]3[O-])c2)cc1` [Example 14, N-[(1-oxidopyridin-1-ium-2-yl)methyl]-3-(p-tolyl)benzamide], in that order: “++ (++: 40-70%,)” and 40 to 70%.
Consider `O=C(NCc1cccc[n+]1[O-])c1cccc(-c2ccc(F)c(F)c2)c1` [Example 19, 3-(3,4-difluorophenyl)-N-[(1-oxidopyridin-1-ium-2-yl)methyl]benzamide], for which the “in vivo efficacy: % MPE” value in assay [1] is on record as “++ (++: 40-70%,)”. In assay [2], the inhibition at 10 µM lay in the range of 40 to 70%.
The matching figures for `Cc1cc(-c2cccc(C(=O)NCc3cccc[n+]3[O-])c2)ccc1F` [Example 22, 3-(4-fluoro-3-methyl-phenyl)-N-[(1-oxidopyridin-1-ium-2-yl)methyl]benzamide]: “+ (+: 10-40%,)” and 40 to 70%.
On to `O=C(NCc1cccc[n+]1[O-])c1cc(-c2ccc(Cl)cc2)ccc1F` [Example 51, 5-(4-chlorophenyl)-2-fluoro-N-[(1-oxidopyridin-1-ium-2-yl)methyl]benzamide], for which the “in vivo efficacy: % MPE” value in assay [1] is recorded as “+++ (+++: 70-100%)”. In addition, the inhibition at 10 µM in assay [2] was 70 to 100%.
Turning to `O=C(NCc1cccc[n+]1[O-])c1cc(-c2ccc(Cl)cc2)ccc1Cl` [Example 62, 2-chloro-5-(4-chlorophenyl)-N-[(1-oxidopyridin-1-ium-2-yl)methyl]benzamide], the inhibition at 10 µM in assay [2] lay in the range of 70 to 100%.
